Measured values published in patent publication US8415469B2, “Compounds and methods for kinase modulation, and indications therefor” (Plexxikon Inc., priority 2005, dated 2013).
pIC50: −log10 of the molar value.

How the values were obtained:
Assay type in all cases: biochemical
Btk = molecular target: T1, Btk (Homo sapiens, UniProt Q06187); assay: Z'-Lyte FRET kinase assay (Invitrogen), Btk; conditions: read-out: IC50, activity toward kinase Btk
T1 construct: purchased Invitrogen (assay run by Invitrogen)
T1 sequence (Q06187 whole entry): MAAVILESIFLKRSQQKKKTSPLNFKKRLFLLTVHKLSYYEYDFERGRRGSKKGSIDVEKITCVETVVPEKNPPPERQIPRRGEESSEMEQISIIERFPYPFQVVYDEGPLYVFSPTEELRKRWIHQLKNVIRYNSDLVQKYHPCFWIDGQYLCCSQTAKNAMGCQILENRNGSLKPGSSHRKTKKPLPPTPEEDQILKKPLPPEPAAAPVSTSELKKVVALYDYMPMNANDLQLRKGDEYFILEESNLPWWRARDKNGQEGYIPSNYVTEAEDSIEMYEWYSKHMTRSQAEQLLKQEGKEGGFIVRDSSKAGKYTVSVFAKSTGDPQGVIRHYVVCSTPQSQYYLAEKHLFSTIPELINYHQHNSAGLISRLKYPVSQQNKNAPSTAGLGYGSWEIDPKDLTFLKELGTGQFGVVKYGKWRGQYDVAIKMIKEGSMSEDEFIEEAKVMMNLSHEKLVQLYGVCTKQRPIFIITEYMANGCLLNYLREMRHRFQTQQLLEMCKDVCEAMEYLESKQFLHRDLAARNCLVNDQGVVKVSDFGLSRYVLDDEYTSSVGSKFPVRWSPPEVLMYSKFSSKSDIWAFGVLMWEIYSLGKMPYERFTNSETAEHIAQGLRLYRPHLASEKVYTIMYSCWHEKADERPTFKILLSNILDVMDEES

B-Raf = molecular target: T2, B-Raf (Homo sapiens, UniProt P15056); assay: AlphaScreen kinase assay, B-Raf; conditions: read-out: IC50, activity toward kinase B-Raf
T2 construct: purchased Upstate Biotechnology
T2 sequence (P15056 whole entry): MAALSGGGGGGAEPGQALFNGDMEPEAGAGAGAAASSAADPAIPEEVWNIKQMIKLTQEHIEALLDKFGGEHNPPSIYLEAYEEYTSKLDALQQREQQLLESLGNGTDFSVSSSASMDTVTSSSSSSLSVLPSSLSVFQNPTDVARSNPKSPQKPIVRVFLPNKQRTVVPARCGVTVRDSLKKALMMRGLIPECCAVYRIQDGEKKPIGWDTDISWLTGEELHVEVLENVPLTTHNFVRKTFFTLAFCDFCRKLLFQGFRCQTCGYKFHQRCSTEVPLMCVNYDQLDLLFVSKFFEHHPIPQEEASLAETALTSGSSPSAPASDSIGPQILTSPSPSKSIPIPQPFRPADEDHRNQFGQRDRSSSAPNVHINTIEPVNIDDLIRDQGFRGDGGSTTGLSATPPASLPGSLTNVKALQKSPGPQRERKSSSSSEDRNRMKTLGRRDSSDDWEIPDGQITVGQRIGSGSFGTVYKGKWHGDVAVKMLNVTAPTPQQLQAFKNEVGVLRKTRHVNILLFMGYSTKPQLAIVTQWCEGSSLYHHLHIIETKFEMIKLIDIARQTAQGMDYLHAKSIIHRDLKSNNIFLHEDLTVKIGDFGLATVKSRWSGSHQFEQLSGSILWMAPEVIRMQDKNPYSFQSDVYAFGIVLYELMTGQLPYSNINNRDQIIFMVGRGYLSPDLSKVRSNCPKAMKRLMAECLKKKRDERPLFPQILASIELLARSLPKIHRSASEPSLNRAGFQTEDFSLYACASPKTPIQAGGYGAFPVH

Kit = molecular target: T3, Kit (Homo sapiens, UniProt P10721); assay: AlphaScreen kinase assay, Kit; conditions: read-out: IC50, activity toward kinase Kit
T3 construct: P1332.N6 BI PTP KIT M552-K948-X COD; His6 (N); made in house; host or cells: E. coli (PTP1B co-expressed)
T3 sequence (P10721 with tags, fused parts or gaps): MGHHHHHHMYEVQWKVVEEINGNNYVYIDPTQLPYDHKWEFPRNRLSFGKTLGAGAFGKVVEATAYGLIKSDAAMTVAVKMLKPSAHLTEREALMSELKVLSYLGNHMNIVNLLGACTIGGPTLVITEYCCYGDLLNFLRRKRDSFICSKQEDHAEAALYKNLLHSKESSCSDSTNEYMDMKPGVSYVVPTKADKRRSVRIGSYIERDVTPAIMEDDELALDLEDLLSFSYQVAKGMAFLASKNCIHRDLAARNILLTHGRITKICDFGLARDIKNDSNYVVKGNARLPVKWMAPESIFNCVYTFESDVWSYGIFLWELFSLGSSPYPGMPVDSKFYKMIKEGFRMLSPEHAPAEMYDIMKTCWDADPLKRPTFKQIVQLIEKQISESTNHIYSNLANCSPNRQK

B-Raf V600E = molecular target: T4, B-Raf V600E (Homo sapiens, UniProt P15056, V600E); assay: AlphaScreen kinase assay, B-Raf V600E; conditions: read-out: IC50, activity toward kinase B-Raf V600E
T4 construct: P4254. pFastBacBD-CDC37 BRAF D437-K722-X, V600E; His6 with pFastBac HT leader (TEV site) (N); made in house; host or cells: Sf9 (baculovirus; chaperone CDC37 co-expressed)
T4 sequence (P15056 with tags, fused parts or gaps V600E): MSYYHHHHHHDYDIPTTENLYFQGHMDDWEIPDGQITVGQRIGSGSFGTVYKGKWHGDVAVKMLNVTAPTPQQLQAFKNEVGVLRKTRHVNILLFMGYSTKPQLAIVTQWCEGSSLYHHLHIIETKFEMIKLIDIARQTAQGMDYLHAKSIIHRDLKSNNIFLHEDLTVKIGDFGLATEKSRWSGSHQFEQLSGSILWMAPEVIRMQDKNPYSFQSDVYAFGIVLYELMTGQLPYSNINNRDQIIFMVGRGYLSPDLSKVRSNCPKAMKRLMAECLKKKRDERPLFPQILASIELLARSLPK

Kdr = molecular target: T5, Kdr (Homo sapiens, UniProt P35968); assay: Z'-Lyte FRET kinase assay (Invitrogen), Kdr; conditions: read-out: IC50, activity toward kinase Kdr
T5 construct: purchased Invitrogen (assay run by Invitrogen)
T5 sequence (P35968 20-1356): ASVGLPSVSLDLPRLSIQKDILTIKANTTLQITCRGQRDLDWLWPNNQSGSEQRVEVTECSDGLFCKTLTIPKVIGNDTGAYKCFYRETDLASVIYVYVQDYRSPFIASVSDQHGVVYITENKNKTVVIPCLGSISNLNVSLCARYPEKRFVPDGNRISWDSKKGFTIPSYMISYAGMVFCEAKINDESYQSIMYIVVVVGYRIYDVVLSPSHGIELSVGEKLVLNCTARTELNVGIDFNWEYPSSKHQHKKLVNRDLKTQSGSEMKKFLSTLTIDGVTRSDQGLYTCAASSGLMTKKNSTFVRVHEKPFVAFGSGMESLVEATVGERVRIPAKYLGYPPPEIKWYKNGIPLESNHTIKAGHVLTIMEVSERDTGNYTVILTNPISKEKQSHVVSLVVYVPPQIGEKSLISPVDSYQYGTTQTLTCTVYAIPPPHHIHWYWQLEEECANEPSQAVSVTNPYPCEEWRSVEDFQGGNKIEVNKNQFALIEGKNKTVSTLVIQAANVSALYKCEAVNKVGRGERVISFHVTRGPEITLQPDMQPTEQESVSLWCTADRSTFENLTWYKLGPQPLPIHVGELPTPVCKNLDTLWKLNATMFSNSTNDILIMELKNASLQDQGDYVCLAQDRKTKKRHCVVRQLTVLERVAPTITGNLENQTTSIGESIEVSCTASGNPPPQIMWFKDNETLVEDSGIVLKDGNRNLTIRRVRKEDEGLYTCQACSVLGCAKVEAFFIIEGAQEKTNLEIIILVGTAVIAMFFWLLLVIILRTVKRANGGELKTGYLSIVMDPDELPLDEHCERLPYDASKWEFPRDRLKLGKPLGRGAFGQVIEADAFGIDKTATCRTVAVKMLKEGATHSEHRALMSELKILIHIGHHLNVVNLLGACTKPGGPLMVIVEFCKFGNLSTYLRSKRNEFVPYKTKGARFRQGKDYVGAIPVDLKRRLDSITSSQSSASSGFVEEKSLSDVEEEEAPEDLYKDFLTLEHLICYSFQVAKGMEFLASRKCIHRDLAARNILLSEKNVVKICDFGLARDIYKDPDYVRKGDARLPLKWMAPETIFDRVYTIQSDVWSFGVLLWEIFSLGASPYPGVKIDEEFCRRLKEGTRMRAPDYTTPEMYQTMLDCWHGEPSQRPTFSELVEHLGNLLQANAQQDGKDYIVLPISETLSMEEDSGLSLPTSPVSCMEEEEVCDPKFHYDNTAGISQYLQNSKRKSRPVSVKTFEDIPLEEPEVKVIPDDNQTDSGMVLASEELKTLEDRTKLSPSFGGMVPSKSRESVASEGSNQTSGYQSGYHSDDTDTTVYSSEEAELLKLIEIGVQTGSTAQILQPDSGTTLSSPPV

SMILES	pIC50 (Btk)	pIC50 (B-Raf)	pIC50 (Kit)	pIC50 (B-Raf V600E)	pIC50 (Kdr)
CCCCNC(=O)Nc1ccc(F)c(C(=O)c2c[nH]c3ncc(-c4cccnc4)cc23)c1F [Compound P-1318, 1-Butyl-3-[2,4-difluoro-3-(5-pyridin-3-yl-1H-pyrrolo[2,3-b]pyridine-3-carbonyl)-phenyl]-urea]	–	≥ 5.00	≥ 5.00	≥ 5.00	≥ 5.00
O=C(Nc1ccc(Cc2c[nH]c3ncccc23)cc1)Nc1cccc(C(F)(F)F)c1 [Compound P-0262, 1-[4-(1H-Pyrrolo[2,3-b]pyridin-3-ylmethyl)-phenyl]-3-(3-trifluoromethyl-phenyl)-urea]	–	≥ 5.00	≥ 5.00	≥ 5.00	≥ 5.00
O=C(c1cc(F)ccc1F)c1c[nH]c2nccc(-c3cccnc3)c12 [Compound P-0063]	≥ 5.00	–	–	≥ 5.00	≥ 5.00
O=C(c1ccccc1F)c1c[nH]c2ncc(-c3ccsc3)cc12 [Compound P-0134]	≥ 5.00	–	≥ 5.00	≥ 5.00	≥ 5.00
CS(=O)(=O)c1cccc(-c2cnc3[nH]cc(C(=O)c4cc(O)ccc4F)c3c2)c1 [Compound P-0008, (2-Fluoro-5-hydroxy-phenyl)-[5-(3-methanesulfonyl-phenyl)-1H-pyrrolo[2,3-b]pyridin-3-yl]-methanone]	–	≥ 5.00	≥ 5.00	≥ 5.00	–
O=C(c1cccc(O)c1F)c1c[nH]c2ncc(-c3cccs3)cc12 [Compound P-0521, (2-fluoro-3-hydroxy-phenyl)-(5-thiophen-2-yl-1H-pyrrolo[2,3-b]pyridin-3-yl)-methanone]	–	≥ 5.00	≥ 5.00	≥ 5.00	≥ 5.00
O=C(c1ccccc1F)c1c[nH]c2nccc(-c3ccsc3)c12 [Compound P-0051]	≥ 5.00	–	–	≥ 5.00	≥ 5.00
Nc1cccc(-c2cnc3[nH]cc(C(=O)c4cccc(O)c4F)c3c2)c1 [Compound P-0004, [5-(3-amino-phenyl)-1H-pyrrolo[2,3-b]pyridin-3-yl]-(2-fluoro-3-hydroxy-phenyl)methanone]	–	≥ 5.00	≥ 5.00	≥ 5.00	–
Fc1cc(F)cc(-c2ccnc3[nH]cc(Sc4ccccn4)c23)c1 [Compound P-0106]	–	–	–	–	≥ 5.00
Cc1c(NS(C)(=O)=O)cccc1C(=O)c1c[nH]c2ncc(-c3ccccc3)cc12 [Compound P-0082, N-[2-Methyl-3-(5-phenyl-1H-pyrrolo[2,3-b]pyridine-3-carbonyl)-phenyl]-methanesulfonamide]	≥ 5.00	≥ 5.00	≥ 5.00	≥ 5.00	≥ 5.00
OC(c1c(F)ccc(F)c1F)c1c[nH]c2ncc(-c3cccnc3)cc12 (stereo not shown) [Compound P-0101]	–	–	≥ 5.00	–	≥ 5.00
COc1cc(OC)cc(C(=O)c2c[nH]c3ncc(-c4cccc(NS(C)(=O)=O)c4)cc23)c1 [Compound P-1426, N-{3-[3-(3,5-Dimethoxy-benzoyl)-1H-pyrrolo[2,3-b]pyridin-5-yl]-phenyl}-methanesulfonamide]	≥ 5.00	–	≥ 5.00	≥ 5.00	≥ 5.00
CS(=O)(=O)c1cccc(-c2ccnc3[nH]cc(C(=O)c4cc(F)ccc4F)c23)c1 [Compound P-0171]	≥ 5.00	≥ 5.00	≥ 5.00	≥ 5.00	–
O=C(c1cccc(O)c1)c1c[nH]c2nccc(-c3cc(F)cc(F)c3)c12 [Compound P-0039]	–	–	≥ 5.00	≥ 5.00	≥ 5.00
CCCS(=O)(=O)Nc1ccc(F)c(C(=O)c2c[nH]c3ncc(-c4ccccc4)cc23)c1F [Compound P-0636, Propane-1-sulfonic acid [2,4-difluoro-3-(5-phenyl-1H-pyrrolo[2,3-b]pyridine-3-carbonyl)-phenyl]-amide]	–	≥ 5.00	≥ 5.00	≥ 5.00	–
NC(=O)c1cccc(-c2ccnc3[nH]cc(C(=O)c4cc(F)ccc4F)c23)c1 [Compound P-0049]	≥ 5.00	–	–	≥ 5.00	≥ 5.00
O=C(c1ccc(O)cc1)c1c[nH]c2ncc(-c3cccs3)cc12 [Compound P-0024, (4-Hydroxy-phenyl)-(5-thiophen-2-yl-1H-pyrrolo[2,3-b]pyridin-3-yl)-methanone]	≥ 5.00	≥ 5.00	≥ 5.00	≥ 5.00	≥ 5.00
O=C(c1cccc(O)c1)c1c[nH]c2ncc(-c3cccs3)cc12 [Compound P-0196]	–	≥ 5.00	≥ 5.00	≥ 5.00	≥ 5.00
CS(=O)(=O)Nc1cccc(-c2ccnc3[nH]cc(C(=O)c4cc(F)ccc4F)c23)c1 [Compound P-0060]	≥ 5.00	≥ 5.00	–	≥ 5.00	≥ 5.00

Second part, the compound after the results:

pIC50 (Btk)	pIC50 (B-Raf)	pIC50 (Kit)	pIC50 (B-Raf V600E)	pIC50 (Kdr)	SMILES
≥ 5.00	≥ 5.00	≥ 5.00	≥ 5.00	–	CN(C)S(=O)(=O)Nc1ccc(F)c(Cc2c[nH]c3ncc(-c4cccnc4)cc23)c1F [Compound P-0166]
≥ 5.00	≥ 5.00	≥ 5.00	≥ 5.00	–	COc1cccc(C(=O)c2c[nH]c3ncc(-c4cccc(NC(C)=O)c4)cc23)c1F [Compound P-1336, N-{3-[3-(2-Fluoro-3-methoxy-benzoyl)-1H-pyrrolo[2,3-b]pyridin-5-yl]-phenyl}-acetamide]
–	≥ 5.00	≥ 5.00	≥ 5.00	≥ 5.00	Oc1ccc(F)c(Cc2c[nH]c3ncc(Br)cc23)c1F [Compound P-0122, 3-(5-Bromo-1H-pyrrolo[2,3-b]pyridin-3-ylmethyl)-2,4-difluoro-phenol]
–	≥ 5.00	≥ 5.00	≥ 5.00	–	Nc1cccc(-c2cnc3[nH]cc(C(=O)c4cc(O)ccc4F)c3c2)c1 [Compound P-0002]
≥ 5.00	≥ 5.00	≥ 5.00	≥ 5.00	–	CS(=O)(=O)c1cccc(-c2cnc3[nH]cc(C(=O)c4cccc(O)c4F)c3c2)c1 [Compound P-0026, (2-Fluoro-3-hydroxy-phenyl)-[5-(3-methanesulfonylphenyl)1H-pyrrolo[2,3-b]pyridin-3-yl]-methanone]
≥ 5.00	–	–	≥ 5.00	≥ 5.00	Nc1cccc(-c2ccnc3[nH]cc(C(=O)c4cc(F)ccc4F)c23)c1 [Compound P-0046]
≥ 5.00	≥ 5.00	≥ 5.00	≥ 5.00	≥ 5.00	CCCS(=O)(=O)Nc1ccc(F)c(C(=O)c2c[nH]c3ncc(OC)cc23)c1F [Compound P-0806, Propane-1-sulfonic acid [2,4-difluoro-3-(5-methoxy-1H-pyrrolo[2,3-b]pyridine-3-carbonyl)-phenyl]-amide]
–	≥ 5.00	≥ 5.00	≥ 5.00	≥ 5.00	CCCC(=O)Nc1ccc(F)c(Cc2c[nH]c3ncc(-c4cccnc4)cc23)c1F [Compound P-1280]
–	–	≥ 5.00	≥ 5.00	≥ 5.00	OCCOc1ccc(F)c(Cc2c[nH]c3ncc(-c4cccnc4)cc23)c1F [Compound P-1394, 2-[2,4-Difluoro-3-(5-pyridin-3-yl-1H-pyrrolo[2,3-b]pyridin-3-ylmethyl)-phenoxy]-ethanol]
